# Test results reported in article PMC9506480, “Synthesis and Evaluation of Antiproliferative Activity, Topoisomerase IIα Inhibition, DNA Binding and Non-Clinical Toxicity of New Acridine–Thiosemicarbazone Derivatives” (Pharmaceuticals, 2022).
# Legend:
# [1] = tested on: HepG2 (human hepatocellular carcinoma); test: Alamar blue cytotoxicity assay, HepG2; type: cell-based; details: 72 h incubation
# Protocol: (§1) The in vitro cytotoxic activity of the compounds (Table 1) was evaluated against cancer cell lines HCT116 (human colon carcinoma), HepG2 (human hepatocellular carcinoma), B16F10 (murine melanoma carcinoma) and non-cancerous cell line MRC-5 (human lung fibroblast) using the Alamar blue assay after 72 h of incubation; doxorubicin (DOX) was used as a positive control. The unsubstituted derivatives on the acridine cores were encoded as CL, and the disubstituted derivatives as DL.
# (§2) The human cancer cell lines HCT116 (colon carcinoma) and HepG2 (hepatocellular carcinoma), the mouse cancer cell line B16-F10 (melanoma), and the non-cancerous human cell line MRC-5 (lung fibroblast) were obtained from the American Type Culture Collection (ATCC, Manassas, VA, USA) and cultured according to the ATCC animal cell culture guide. All cell lines tested negative for mycoplasma using a mycoplasma stain kit.
# (§3) Cell viability was measured using the Alamar blue assay, as previously described. Cells were seeded in 96-well plates for all experiments. The compounds were dissolved in dimethyl sulfoxide (DMSO, Sigma-Aldrich) and added to each well in eight serial concentrations ranging from 0.19 to 25 μg/mL. As a positive control, doxorubicin was used. After 72 h of treatment, 20 μL of resazurin (0.312 mg/mL) was added to each well. A SpectraMax 190 Micro-plate Reader was used to measure absorbances at 570 and 595 nm (Molecular Devices, Sunnyvale, CA, USA). Nonlinear regression with 95% confidence intervals (CI 95%) was used to calculate the inhibitory concentration of 50% (IC50) using GraphPad Prism software (Intuitive Software for Science; San Diego, CA, USA).
# [2] = tested on: MRC-5 (human lung fibroblast); test: Alamar blue cytotoxicity assay, non-cancerous MRC-5; type: cell-based; details: MRC5, 72 h incubation, non-cancerous cell
# Protocol: as §1, §2, §3
# [3] = tested on: HCT116 (human colon carcinoma); test: Alamar blue cytotoxicity assay, HCT116; type: cell-based; details: HCT-116, 72 h incubation
# Protocol: as §1, §2, §3
# [4] = tested on: B16-F10 (murine melanoma); test: Alamar blue cytotoxicity assay, B16-F10; type: cell-based; details: Mus musculus, 72 h incubation
# Protocol: as §1, §2, §3
# [5] = biological target: T1, recombinant human topoisomerase IIα (p170) (Homo sapiens, UniProt P11388); test: Human topoisomerase IIα inhibition assay (pUC19 plasmid relaxation); type: biochemical
# T1 construct: purchased Sigma-Aldrich
# Text: Several studies have shown the ability of acridines to inhibit topoisomerases, being considered the main mechanism responsible for the antiproliferative activities of this scaffold. The possibility of the new acridine derivatives to inhibit Topo IIα in its biological function of DNA double-strand relaxation was investigated in this work. This enzymatic inhibition can be accompanied by the presence of a supercoiled or relaxed DNA band, performed with the pUC19 plasmid, as shown in Figure 2. In this study, mAMSA was used as a positive inhibition control.
# For testing the ability of Topo IIα inhibition, the compounds were evaluated in the DNA plasmid relaxation assay. This test consists of evaluating the Topo IIα enzyme activity in the absence and presence of the compound, followed by electrophoresis analysis, as previously described by Almeida et al. (2016). Briefly, 100 ng pUC19 DNA plasmid (Sigma-Aldrich) and 4.0 units of recombinant human (p170) topoisomerase II (Sigma-Aldrich) in relaxation buffer without or with tested compounds were incubated for 30 min at 37 °C. The tested concentrations were […], and amsacrine (mAMSA) was used as a positive control. Reactions were terminated with 1% SDS and digested with proteinase K. Then, the reaction products were analyzed by electrophoresis gel stained with ethidium bromide and photographed under UV light. Quantitative evaluation (% of enzyme inhibition by compounds about the positive control mAMSA) of the gel bands corresponding to supercoiled DNA was performed by densitometry using image-processing software (Scion Image, version Beta 4.0.2.) according to Gouveia et al. (2018).
# Figure 2 Effects of mAMSA and its acridine derivatives on topoisomerase IIα activity. Effects of derivatives and positive control on the inhibition of human topoisomerase IIα. Native supercoiled pUC19 was incubated for 30 min at 37 °C with […] of human Topo IIα in the absence (lane 2) or presence of ligands at a concentration 100 μM. Inhibition of Topo IIα-induced DNA relaxation by mAMSA (lane 3) was used as a positive control. DNA samples were run on an agarose gel followed by ethidium bromide staining.
# T1 sequence (P11388 whole entry): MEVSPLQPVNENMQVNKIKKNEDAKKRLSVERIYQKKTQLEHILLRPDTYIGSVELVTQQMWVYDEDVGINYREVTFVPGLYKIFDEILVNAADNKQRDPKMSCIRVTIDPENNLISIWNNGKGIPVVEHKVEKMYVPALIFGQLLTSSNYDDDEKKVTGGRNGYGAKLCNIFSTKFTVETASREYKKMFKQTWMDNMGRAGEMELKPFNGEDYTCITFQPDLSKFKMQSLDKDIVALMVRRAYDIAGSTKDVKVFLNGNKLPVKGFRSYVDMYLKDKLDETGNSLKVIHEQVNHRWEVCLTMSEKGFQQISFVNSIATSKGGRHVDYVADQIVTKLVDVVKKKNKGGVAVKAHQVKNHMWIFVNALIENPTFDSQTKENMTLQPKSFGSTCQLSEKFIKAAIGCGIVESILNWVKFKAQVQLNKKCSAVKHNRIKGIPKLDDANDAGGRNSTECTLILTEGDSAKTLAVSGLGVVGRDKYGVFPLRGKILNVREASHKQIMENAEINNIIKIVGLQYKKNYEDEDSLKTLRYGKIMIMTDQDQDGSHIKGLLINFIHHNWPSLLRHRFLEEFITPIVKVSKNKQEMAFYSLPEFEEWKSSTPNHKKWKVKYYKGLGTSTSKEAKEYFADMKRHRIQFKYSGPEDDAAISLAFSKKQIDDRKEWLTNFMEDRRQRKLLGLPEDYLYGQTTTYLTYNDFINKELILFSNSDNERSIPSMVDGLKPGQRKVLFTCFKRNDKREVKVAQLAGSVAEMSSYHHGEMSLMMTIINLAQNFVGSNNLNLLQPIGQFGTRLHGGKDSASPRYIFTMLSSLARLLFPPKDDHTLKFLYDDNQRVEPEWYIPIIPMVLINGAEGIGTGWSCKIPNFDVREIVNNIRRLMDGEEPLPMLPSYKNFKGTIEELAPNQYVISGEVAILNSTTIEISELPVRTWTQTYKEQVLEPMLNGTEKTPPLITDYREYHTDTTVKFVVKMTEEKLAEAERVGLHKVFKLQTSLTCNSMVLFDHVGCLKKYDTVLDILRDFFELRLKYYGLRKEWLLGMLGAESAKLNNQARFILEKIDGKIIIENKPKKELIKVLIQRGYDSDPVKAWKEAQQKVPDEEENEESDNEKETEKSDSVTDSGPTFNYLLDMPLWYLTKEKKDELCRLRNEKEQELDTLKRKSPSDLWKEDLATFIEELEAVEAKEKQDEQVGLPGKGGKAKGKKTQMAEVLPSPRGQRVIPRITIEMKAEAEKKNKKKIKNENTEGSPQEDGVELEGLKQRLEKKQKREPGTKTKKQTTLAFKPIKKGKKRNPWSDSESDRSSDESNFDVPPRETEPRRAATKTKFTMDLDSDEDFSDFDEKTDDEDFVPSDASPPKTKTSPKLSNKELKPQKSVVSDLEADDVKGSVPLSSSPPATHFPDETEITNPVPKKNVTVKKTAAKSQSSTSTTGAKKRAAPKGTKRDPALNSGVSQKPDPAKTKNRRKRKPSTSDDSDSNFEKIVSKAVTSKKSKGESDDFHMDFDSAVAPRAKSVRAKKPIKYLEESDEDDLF
Compound,IC50 [1] [µM],IC50 [2] [µM],IC50 [3] [µM],IC50 [4] [µM],inhibition of Topo IIα enzymatic activity (in words) ([5]; 100 µM),melting point [°C],"% of enzyme inhibition ([5]; 100 µM, densitometry, relative to positive control mAMSA, '-' = no inhibition) [%]","inhibition at 100 µM ([5]; densitometry, relative to positive control mAMSA, '-' = no inhibition, read-out: % of enzyme inhibition) [%]"
"COc1ccc2nc3cc(Cl)ccc3c(NC(=S)N/N=C/c3ccc(C)cc3)c2c1 [DL-06, (E)-N-(6-chloro-2-methoxyacridin-9-yl)-2-(4-methylbenzylidene)hydrazine-1-carbothioamide]",33.4,> 60,> 60,26.3,did not show inhibition capacity,157 to 158,,
"COc1ccc2nc3cc(Cl)ccc3c(NC(=S)N/N=C/c3ccc(Cl)cc3)c2c1 [DL-02, (E)-N-(6-chloro-2-methoxyacridin-9-yl)-2-(4-chlorobenzylidene)hydrazine-1-carbothioamide]",> 60,> 60,> 60,30.6,,144 to 145,,
"S=C(N/N=C/c1ccc(Cl)cc1Cl)Nc1c2ccccc2nc2ccccc12 [CL-04, (E)-N-(acridin-9-yl)-2-(2,4-dichlorobenzylidene)hydrazine-1-carbothioamide]",> 60,> 60,> 60,,,,,
"COc1cccc2c1C(=O)c1c(O)c3c(c(O)c1C2=O)C[C@@](O)(C(=O)CO)C[C@@H]3O[C@H]1C[C@H](N)[C@H](O)[C@H](C)O1 [DOX, doxorubicin, reference compound]",0.15,2.22,0.15,0.03,,,,
"CN(C)c1ccc(/C=N/NC(=S)Nc2c3ccccc3nc3ccccc23)cc1 [CL-09, (E)-N-(acridin-9-yl)-2-(4-(dimethylamino)benzylidene)hydrazine-1-carbothioamide]",> 60,> 60,> 60,,,,,
"S=C(N/N=C/c1ccc(Br)cc1)Nc1c2ccccc2nc2ccccc12 [CL-10, (E)-N-(acridin-9-yl)-2-(4-bromobenzylidene)hydrazine-1-carbothioamide]",> 60,> 60,> 60,,,,,
"COc1ccc2nc3cc(Cl)ccc3c(NC(=S)N/N=C/c3ccc(O)cc3)c2c1 [DL-07, (E)-N-(6-chloro-2-methoxyacridin-9-yl)-2-(4-hydroxybenzylidene)hydrazine-1-carbothioamide]",24.8,23.6,28.5,21.1,able to inhibit the enzymatic activity,163 to 164,74,> 74
"COc1ccc(/C=N/NC(=S)Nc2c3ccccc3nc3ccccc23)cc1 [CL-03, (E)-N-(acridin-9-yl)-2-(4-methoxybenzylidene)hydrazine-1-carbothioamide]",> 70,> 70,> 70,> 70,,,,
"S=C(N/N=C/c1ccccc1)Nc1c2ccccc2nc2ccccc12 [CL-01, (E)-N-(acridin-9-yl)-2-benzylidenehydrazine-1-carbothioamide]",> 70,> 70,> 70,,,,,
"COc1ccc2nc3cc(Cl)ccc3c(NC(=S)N/N=C/c3ccc([N+](=O)[O-])cc3)c2c1 [DL-05, (E)-N-(6-chloro-2-methoxyacridin-9-yl)-2-(4-nitrobenzylidene)hydrazine-1-carbothioamide]",> 60,> 60,> 60,> 60,,164 to 165,,
"S=C(N/N=C/c1ccc(Cl)cc1)Nc1c2ccccc2nc2ccccc12 [CL-02, (E)-N-(acridin-9-yl)-2-(4-chlorobenzylidene)hydrazine-1-carbothioamide]",> 70,> 70,> 70,,,,,
"COc1ccc2nc3cc(Cl)ccc3c(NC(=S)N/N=C/c3ccc(Br)cc3)c2c1 [DL-10, (E)-2-(4-bromobenzylidene)-N-(6-chloro-2-methoxyacridin-9-yl)hydrazine-1-carbothioamide]",20.9,> 50,> 50,34.6,,162 to 163,,
"COc1ccc(/C=N/NC(=S)Nc2c3ccc(Cl)cc3nc3ccc(OC)cc23)cc1 [DL-03, (E)-N-(6-chloro-2-methoxyacridin-9-yl)-2-(4-methoxybenzylidene)hydrazine-1-carbothioamide]",> 60,> 60,> 60,> 60,,148,,
"COc1ccc2nc3cc(Cl)ccc3c(NC(=S)N/N=C/c3ccc(Cl)cc3Cl)c2c1 [DL-04, (E)-N-(6-chloro-2-methoxyacridin-9-yl)-2-(2,4-dichlorobenzylidene)hydrazine-1-carbothioamide]",> 60,> 60,> 60,> 60,,192 to 193,,
"Cc1ccc(/C=N/NC(=S)Nc2c3ccccc3nc3ccccc23)cc1 [CL-06, (E)-N-(acridin-9-yl)-2-(4-methylbenzylidene)hydrazine-1-carbothioamide]",58.1,28,64.8,23.5,,,,
"O=[N+]([O-])c1ccc(/C=N/NC(=S)Nc2c3ccccc3nc3ccccc23)cc1 [CL-05, (E)-N-(acridin-9-yl)-2-(4-nitrobenzylidene)hydrazine-1-carbothioamide]",> 60,26.8,> 60,22.7,,,,
"COc1ccc2nc3cc(Cl)ccc3c(NC(=S)N/N=C/c3ccc(N(C)C)cc3)c2c1 [DL-09, (E)-N-(6-chloro-2-methoxyacridin-9-yl)-2-(4-(dimethylamino)benzylidene)hydrazine-1-carbothioamide]",> 60,> 60,> 60,46,,149 to 150,,
"Oc1cccc(/C=N/NC(=S)Nc2c3ccccc3nc3ccccc23)c1 [CL-08, (E)-N-(acridin-9-yl)-2-(3-hydroxybenzylidene)hydrazine-1-carbothioamide]",49.4,33.4,39.2,21.3,,,,
